In US7962204B2 (priority 2001, dated 2011):

Tested on: behaviorally-diagnosed psychiatric conditions (DSM categories)
Set-up: species or system human
Conditions: in vivo
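For use code of agent in 301.7 Antisocial Personality Disorder in this document: N marks novel agent found effective in subject subgroups.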
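For use code of agent in 301.83 Borderline Personality Disorder in this document: N marks novel agent found effective in subject subgroups.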
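For use in 307.50 Eating Disorder NOS in this document: N marks novel agent found effective in subject subgroups.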
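For use in 307.51 Bulimia Nervosa in this document: N marks novel agent found effective in subject subgroups.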

N[C@@H]1C[C@H]1c1ccccc1 [PARNATE, reference compound]
N: use code of agent in 301.20 Schizoid Personality Disorder | use code of agent in 301.4 Obsessive-Compulsive Personality Disorder | use code of agent in 301.50 Histrionic Personality Disorder | use code of agent in 301.6 Dependent Personality Disorder | use code of agent in 301.7 Antisocial Personality Disorder | use code of agent in 301.82 Avoidant Personality Disorder | use code of agent in 301.83 Borderline Personality Disorder | use code of agent in 302.71 Hypoactive Sexual Desire Disorder | use code of agent in 307.42 Primary Insomnia | use code of agent in 311 Depressive Disorder NOS | use code of agent in 316 Psychological Factors Affecting Medical Condition, Atypical Asthma | use code of agent in 316 Psychological Factors Affecting Medical Condition, Neurodermatitis | use code of agent in Bipolar I Disorder | use code of agent in Major Depressive Disorder, Recurrent | use code of agent in Major Depressive Disorder, Single Episode | use in 294.9 Cognitive Disorder NOS | use in 296.89 Bipolar II Disorder | use in 296.90 Mood Disorder NOS | use in 299.80 Pervasive Developmental Disorder NOS | use in 300.00 Anxiety Disorder NOS | use in 300.02 Generalized Anxiety Disorder | use in 300.22 Agoraphobia Without History of Panic Disorder | use in 300.23 Social Phobia | use in 300.29 Specific Phobia | use in 300.3 Obsessive-Compulsive Disorder | use in 300.4 Dysthymic Disorder | use in 301.13 Cyclothymic Disorder | use in 307.1 Anorexia Nervosa | use in 307.50 Eating Disorder NOS | use in 307.51 Bulimia Nervosa | use in 309.21 Separation Anxiety Disorder | use in 309.81 Posttraumatic Stress Disorder | use in 312.30 Impulse-Control Disorder NOS | use in 312.31 Pathological Gambling | use in 312.34 Intermittent Explosive Disorder | use in 312.39 Trichotillomania | use in 312.8 Conduct Disorder | use in 313.81 Oppositional Defiant Disorder | use in 315.9 Learning Disorder NOS | use in Attention-Deficit/Hyperactivity Disorder | use in Panic Disorder | use of the agent in the diagnostic category (C = common use; N = novel use from rEEG features)

NC1=NC(=O)C(c2ccccc2)O1 (stereo not drawn) [PEMOLINE]
N: use code of agent in 294.8 Amnestic Disorder | use code of agent in 294.9 Cognitive Disorder NOS | use code of agent in 296.90 Mood Disorder NOS | use code of agent in 300.4 Dysthymic Disorder | use code of agent in 301.13 Cyclothymic Disorder | use code of agent in 307.1 Anorexia Nervosa | use code of agent in 307.50 Eating Disorder NOS | use code of agent in 307.51 Bulimia Nervosa | use code of agent in 312.30 Impulse-Control Disorder NOS | use code of agent in 312.31 Pathological Gambling | use code of agent in 312.8 Conduct Disorder | use code of agent in 313.81 Oppositional Defiant Disorder | use code of agent in 315.9 Learning Disorder NOS | use of agent in DSM category (C/N code)

NNCCc1ccccc1 [PHENALZINE]
N: use code of agent in 301.20 Schizoid Personality Disorder | use code of agent in 301.4 Obsessive-Compulsive Personality Disorder | use code of agent in 301.50 Histrionic Personality Disorder | use code of agent in 301.6 Dependent Personality Disorder | use code of agent in 301.7 Antisocial Personality Disorder | use code of agent in 301.82 Avoidant Personality Disorder | use code of agent in 301.83 Borderline Personality Disorder | use code of agent in 302.71 Hypoactive Sexual Desire Disorder | use code of agent in 307.42 Primary Insomnia | use code of agent in 311 Depressive Disorder NOS | use code of agent in 316 Psychological Factors Affecting Medical Condition, Atypical Asthma | use code of agent in 316 Psychological Factors Affecting Medical Condition, Neurodermatitis | use code of agent in Bipolar I Disorder | use code of agent in Major Depressive Disorder, Recurrent | use code of agent in Major Depressive Disorder, Single Episode | use in 294.9 Cognitive Disorder NOS | use in 296.89 Bipolar II Disorder | use in 296.90 Mood Disorder NOS | use in 299.80 Pervasive Developmental Disorder NOS | use in 300.00 Anxiety Disorder NOS | use in 300.22 Agoraphobia Without History of Panic Disorder | use in 300.23 Social Phobia | use in 300.29 Specific Phobia | use in 300.3 Obsessive-Compulsive Disorder | use in 300.4 Dysthymic Disorder | use in 301.13 Cyclothymic Disorder | use in 307.1 Anorexia Nervosa | use in 307.50 Eating Disorder NOS | use in 307.51 Bulimia Nervosa | use in 309.21 Separation Anxiety Disorder | use in 309.81 Posttraumatic Stress Disorder | use in 312.31 Pathological Gambling | use in 312.34 Intermittent Explosive Disorder | use in 312.39 Trichotillomania | use in 312.8 Conduct Disorder | use in 313.81 Oppositional Defiant Disorder | use in 315.9 Learning Disorder NOS | use in Attention-Deficit/Hyperactivity Disorder | use in Panic Disorder | use of the agent in the diagnostic category (C = common use; N = novel use from rEEG features)

CC(C)(N)Cc1ccccc1 [PHENTERMINE]
N: use code of agent in 294.9 Cognitive Disorder NOS | use code of agent in 300.4 Dysthymic Disorder | use code of agent in 307.50 Eating Disorder NOS | use code of agent in 312.8 Conduct Disorder | use of agent in DSM category (C/N code)

N[C@@H](Cc1ccccc1)C(=O)O [PHENYLALANINE, reference compound]
N: agent found effective in 299.00 Autistic Disorder | agent found effective in 300.00 Anxiety Disorder NOS | agent found effective in 300.02 Generalized Anxiety Disorder | agent found effective in 300.22 Agoraphobia Without History of Panic Disorder | agent found effective in 300.23 Social Phobia | agent found effective in 300.29 Specific Phobia | agent found effective in 300.3 Obsessive-Compulsive Disorder | agent found effective in 309.81 Posttraumatic Stress Disorder | agent found effective in Panic Disorder | use in Dementia of the Alzheimer's Type

Cc1nc2n(c(=O)c1CCN1CCC(c3noc4cc(F)ccc34)CC1)CCCC2 [RISPERDONE]
N: use in 300.22 Agoraphobia Without History of Panic Disorder

CC(C)CC(N(C)C)C1(c2ccc(Cl)cc2)CCC1 (stereo not drawn) [SILBTRMIN]
N: use code of agent in 312.34 Intermittent Explosive Disorder | use in 307.22 Chronic Motor or Vocal Tic Disorder | use of the agent in the diagnostic category (C = common use; N = novel use from rEEG features)

COC(=O)C(c1ccccc1)C1CCCCN1 (stereo not drawn) [SR METHYLPHENIDATE]
N: use code of agent in 294.8 Amnestic Disorder | use code of agent in 296.89 Bipolar II Disorder | use code of agent in 312.34 Intermittent Explosive Disorder | use code of agent in Dementia of the Alzheimer's Type | use in 299.80 Pervasive Developmental Disorder NOS | use in 300.00 Anxiety Disorder NOS | use in 300.02 Generalized Anxiety Disorder | use in 300.22 Agoraphobia Without History of Panic Disorder | use in 300.23 Social Phobia | use in 300.29 Specific Phobia | use in 300.3 Obsessive-Compulsive Disorder | use in 307.22 Chronic Motor or Vocal Tic Disorder | use in 307.9 Communication Disorder NOS | use in 309.21 Separation Anxiety Disorder | use in 309.81 Posttraumatic Stress Disorder | use in Panic Disorder | use of agent in DSM category (C/N code) | use of the agent in the diagnostic category (C = common use; N = novel use from rEEG features)

N[C@@H](Cc1ccc(O)cc1)C(=O)O [TYROSINE]
N: use in Dementia of the Alzheimer's Type

Cc1ccc(-c2nc3ccc(C)cn3c2CC(=O)N(C)C)cc1 [ZOLIPIDEM]
N: use of the agent in the diagnostic category (C = common use; N = novel use from rEEG features)

N=C(N)NC(=O)Cc1c(Cl)cccc1Cl [[…]]
N: use code of agent in 316 Psychological Factors Affecting Medical Condition, Hypertensive Disorder NOS

GABA [reference compound]
N: agent found effective in 300.00 Anxiety Disorder NOS | agent found effective in 300.02 Generalized Anxiety Disorder | agent found effective in 300.22 Agoraphobia Without History of Panic Disorder | agent found effective in 300.23 Social Phobia | agent found effective in 300.29 Specific Phobia | agent found effective in 300.3 Obsessive-Compulsive Disorder | agent found effective in 309.81 Posttraumatic Stress Disorder | agent found effective in Panic Disorder | use code of agent in 301.4 Obsessive-Compulsive Personality Disorder | use code of agent in 301.7 Antisocial Personality Disorder | use code of agent in 301.82 Avoidant Personality Disorder | use code of agent in 301.83 Borderline Personality Disorder | use code of agent in 307.42 Primary Insomnia | use code of agent in 316 Psychological Factors Affecting Medical Condition, Neurodermatitis | use in 300.00 Anxiety Disorder NOS | use in 300.02 Generalized Anxiety Disorder | use in 300.22 Agoraphobia Without History of Panic Disorder | use in 300.23 Social Phobia | use in 300.29 Specific Phobia | use in 300.3 Obsessive-Compulsive Disorder | use in 307.1 Anorexia Nervosa | use in 307.22 Chronic Motor or Vocal Tic Disorder | use in 307.50 Eating Disorder NOS | use in 307.51 Bulimia Nervosa | use in 309.21 Separation Anxiety Disorder | use in 309.81 Posttraumatic Stress Disorder | use in 313.81 Oppositional Defiant Disorder | use in Panic Disorder | use of the agent in the diagnostic category (C = common use; N = novel use from rEEG features)
